Earlier results on 14 molecules are cited in patent US10858575B2, “Temperature-stable corrosion inhibitor compositions and methods of use” (ChampionX USA Inc., priority 2017, dated 2020).

The conditions of one series: octanol/water.
Turning to `O=C1CCCO1`, the LogP (usually the decadic logarithm of the partition coefficient of the neutral form, usually between octanol and water) is reported as −0.57.

The conditions of a further series: at 20° C.
As for `CCCCOCCOCCO` [diethylene glycol butyl ether], the vapor pressure is recorded as 30 mm Hg.

As for `CCOCCOCCO` [diethylene glycol ethyl ether], the vapor pressure is 0.12 mm Hg.

Turning to `CCCCCCOCCOCCO` [diethylene glycol hexyl ether], the vapor pressure is 0.001 mm Hg.

On to `COCCOCCO` [diethylene glycol methyl ether], for which the vapor pressure is 0.2 mm Hg.

Take `COC(C)COC(C)CO` (centres unmarked) [dipropylene glycol methyl ether]: the vapor pressure is reported as 0.28 mm Hg.

`CCCOC(C)COC(C)CO` (centres unmarked) [dipropylene glycol propyl ether]: the vapor pressure is recorded as 0.08 mm Hg.

As to `CCCCOCCO` [ethylene glycol butyl ether], the vapor pressure was 10 mm Hg.

Consider `CCOCCO` [ethylene glycol ethyl ether], for which the vapor pressure is on record as 3.8 mm Hg.

For the molecule `CCCCCCOCCO` [ethylene glycol hexyl ether], the vapor pressure is on record as 0.05 mm Hg.

As for `CCCCOCC(C)O` (centres unmarked) [propylene glycol butyl ether], the vapor pressure is 0.85 mm Hg.

In the case of `COCC(C)O` (centres unmarked) [propylene glycol methyl ether], the vapor pressure is listed as 8.7 mm Hg.

In the case of `CCCOCC(C)O` (centres unmarked) [propylene glycol propyl ether], the vapor pressure is 4.5 mm Hg.

Take `CCCCOC(C)COC(C)COC(C)CO` (centres unmarked) [tripropylene glycol butyl ether]: the vapor pressure is given as 0.002 mm Hg.
